Like-named read-outs stand apart in the source and are kept apart here.
What was measured:
TYK2-JH2 domain = biological target: T1, TYK2-JH2 domain (Homo sapiens, UniProt P29597); assay: Binding activity test for JH2 domain of TYK2 (Tb-antibody/tracer FRET); settings: for JAK1/TYK2 selectivity: ratio JAK1-JH2 IC50 / TYK2-JH2 IC50
T1 construct: IC50 on JH2 domain activity (nM)
Description: (§1) Binding Activity Test for […] Domain of JAK1 and TYK2 The compounds are prepared in DMSO for 200× top dose, then serial dilute it with 27-fold for 3 more points. Add 8 μL/well in echo source plate, echo will add 75 nL/well with 3-fold serial dilution for 11 points in assay plate. 75 nL DMSO for high control and low control. […] For low control, add 5 μL/well assay buffer. And then spin down at 1000 rpm and centrifuge for 30 seconds. After enzyme system prepared, add 5 μL of Tb-antibody solution into each wells of assay plate. Spin down at 1000 rpm and centrifuge for 30 sec. After Tb-antibody added, also add 5 μL of tracer into the assay plate. Spin down at 1000 rpm and centrifuge for 30 sec. Incubate for 60 mins at 25° C. firstly and then continue to incubate the plate at 4° C. overnight. Read by envision in FRET mode. The Luminescence value was recorded by a multi-label reader Envision (PerkinElmer).

JAK1-JH2 domain = biological target: T2, JAK1-JH2 domain (Homo sapiens, UniProt P23458); assay: Binding activity test for JH2 domain of JAK1 (Tb-antibody/tracer FRET)
T2 construct: IC50 on JH2 domain activity (nM)
T2 sequence (P23458 583-855 limits assumed): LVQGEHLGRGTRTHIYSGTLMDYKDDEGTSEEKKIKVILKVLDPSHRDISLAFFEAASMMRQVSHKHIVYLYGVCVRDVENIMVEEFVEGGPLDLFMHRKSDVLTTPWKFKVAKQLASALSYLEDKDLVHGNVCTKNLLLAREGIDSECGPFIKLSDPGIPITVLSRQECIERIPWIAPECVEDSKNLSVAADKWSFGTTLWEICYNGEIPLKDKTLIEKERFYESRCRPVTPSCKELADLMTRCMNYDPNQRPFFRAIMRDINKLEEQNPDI
Description: as §1

[1] = biological target: T3, Ba/F3-FL-TYK2-P760L cells (Homo sapiens, UniProt P29597, P760L, cells depend on it); assay: Anti-proliferative assay, Ba/F3-FL-TYK2-P760L cells (Cell-Titer Glo); type: cell-based; settings: 72 h, read-out: BaF3-FL-T2P760L IC50
T3 construct: BaF3-FL-T2P760L (nM)
T3 sequence (P29597 whole entry P760L): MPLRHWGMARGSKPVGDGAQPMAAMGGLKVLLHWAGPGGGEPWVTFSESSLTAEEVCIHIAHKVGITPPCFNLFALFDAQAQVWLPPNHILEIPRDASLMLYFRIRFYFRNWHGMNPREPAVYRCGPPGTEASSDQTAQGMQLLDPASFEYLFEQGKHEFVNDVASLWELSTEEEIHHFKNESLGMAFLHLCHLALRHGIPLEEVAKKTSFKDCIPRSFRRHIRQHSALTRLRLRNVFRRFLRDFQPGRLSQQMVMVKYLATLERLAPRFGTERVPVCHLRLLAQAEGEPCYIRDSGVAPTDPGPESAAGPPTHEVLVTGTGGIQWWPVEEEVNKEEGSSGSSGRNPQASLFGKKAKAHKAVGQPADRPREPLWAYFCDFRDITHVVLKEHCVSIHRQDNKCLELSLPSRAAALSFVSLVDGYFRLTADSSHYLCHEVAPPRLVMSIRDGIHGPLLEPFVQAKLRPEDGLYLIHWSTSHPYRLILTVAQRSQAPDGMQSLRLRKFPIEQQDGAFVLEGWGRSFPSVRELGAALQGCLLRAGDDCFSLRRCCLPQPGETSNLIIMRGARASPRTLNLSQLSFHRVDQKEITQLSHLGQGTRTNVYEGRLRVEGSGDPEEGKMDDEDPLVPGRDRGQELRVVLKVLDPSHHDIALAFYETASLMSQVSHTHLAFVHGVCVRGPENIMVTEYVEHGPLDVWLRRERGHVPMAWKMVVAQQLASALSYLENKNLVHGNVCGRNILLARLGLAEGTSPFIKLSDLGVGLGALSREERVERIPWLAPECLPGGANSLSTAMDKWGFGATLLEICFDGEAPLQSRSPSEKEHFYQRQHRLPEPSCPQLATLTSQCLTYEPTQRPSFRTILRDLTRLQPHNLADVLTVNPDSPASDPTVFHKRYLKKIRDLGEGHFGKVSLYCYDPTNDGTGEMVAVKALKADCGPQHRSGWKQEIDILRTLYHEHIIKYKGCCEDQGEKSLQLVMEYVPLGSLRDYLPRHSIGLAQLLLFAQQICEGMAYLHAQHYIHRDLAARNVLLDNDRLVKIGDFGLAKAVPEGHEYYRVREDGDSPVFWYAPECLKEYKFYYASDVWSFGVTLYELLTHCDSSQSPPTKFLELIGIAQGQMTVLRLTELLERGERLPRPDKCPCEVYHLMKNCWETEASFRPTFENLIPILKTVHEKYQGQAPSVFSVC
How it was run: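 Ba/F3 cells made IL-3-independent by TEL-fused or full-length mutant JAK-family kinases, seeded at 2000/well and dosed after 24 h with 9 three-fold dilutions topping at 20 μM. Viability after 72 h at 37 °C, 5% CO2 by Cell-Titer Glo ATP luminescence.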

[2] = Microsomal metabolic stability assay; type: in vitro ADME; settings: pH 7.4, 0.5 mg/mL protein, 1 μM compound
How it was run: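 Test article at 1 μM with 0.5 mg/mL microsomal protein and 2 mM NADPH, in 100 mM potassium phosphate pH 7.4 with 1.0 mM EDTA at 37 °C. Sampled at 0–45 min and quantified by LC/MS/MS. T1/2 from the slope of ln % remaining vs time.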

[3] = dog liver microsomes, read-out: Dog LM Clint
[4] = dog liver microsomes, read-out: Dog LM T½
[5] = human liver microsomes, read-out: Human LM Clint
[6] = human liver microsomes, read-out: Human LM T½
[7] = rat liver microsomes, read-out: Rat LM Clint
[8] = rat liver microsomes, read-out: Rat LM T½

T1 sequence (P29597 589-875 limits assumed): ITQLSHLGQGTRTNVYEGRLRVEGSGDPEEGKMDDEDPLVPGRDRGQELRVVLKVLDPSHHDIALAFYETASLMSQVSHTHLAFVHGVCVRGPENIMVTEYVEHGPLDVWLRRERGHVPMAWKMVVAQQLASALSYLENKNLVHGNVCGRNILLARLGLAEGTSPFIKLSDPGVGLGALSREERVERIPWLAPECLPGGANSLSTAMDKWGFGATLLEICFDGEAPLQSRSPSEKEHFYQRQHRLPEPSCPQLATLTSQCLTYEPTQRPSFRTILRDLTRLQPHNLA

In the case of [2H]C([2H])([2H])NC(=O)c1cnc(NC(=O)[C@@H]2C[C@H]2F)cc1Nc1ccc2cnn(CC)c2c1OC (relative stereo) [Example 241, 4-((1-Ethyl-7-methoxy-1H-indazol-6-yl)amino)-6-(trans-2-fluorocyclopropanecarboxamido)-N-(methyl-d3)nicotinamide], the IC50 (TYK2-JH2 domain) is reported as 0.534 nM, the JAK1/TYK2 selectivity (TYK2-JH2 domain) is reported as 28.7 and the IC50 (JAK1-JH2 domain) is reported as 15.3 nM. It also gave a GI50 [1] of 161 nM.
In the case of [2H]C([2H])([2H])NC(=O)c1cnc(NC(=O)C2CC2)cc1Nc1cn(C)c2ncn([C@@H](C)C(F)(F)F)c(=O)c12 (single isomer, unassigned) [Example 234B, (S*)-6-(cyclopropanecarboxamido)-N-(methyl-d3)-4-((7-methyl-4-oxo-3-(1,1,1-trifluoropropan-2-yl)-4,7-dihydro-3H-pyrrolo[2,3-d]pyrimidin-5-yl)amino)nicotinamide], the IC50 (TYK2-JH2 domain) is reported as 5.78 nM, the JAK1/TYK2 selectivity (TYK2-JH2 domain) is reported as 42.2 and the IC50 (JAK1-JH2 domain) is reported as 244 nM.
Compound [2H]C([2H])([2H])NC(=O)c1cnc(NC(=O)C2CC2)cc1Nc1ccc2cnn(C(C)C#N)c2c1OC (single isomer, unassigned) [Example 249A, (R*)-4-((1-(1-cyanoethyl)-7-methoxy-1H-indazol-6-yl)amino)-6-(cyclopropanecarboxamido)-N-(methyl-d3)nicotinamide] has an IC50 (TYK2-JH2 domain) of 0.715 nM, a JAK1/TYK2 selectivity (TYK2-JH2 domain) of 25.15 and an IC50 (JAK1-JH2 domain) of 18 nM. The GI50 [1] was 495 nM.
[2H]C([2H])([2H])NC(=O)c1cnc(NC(=O)C2CC2)cc1Nc1ccc2cnn(C(C)C#N)c2c1OC (single isomer, unassigned) [Example 249B, (S*)-4-((1-(1-cyanoethyl)-7-methoxy-1H-indazol-6-yl)amino)-6-(cyclopropanecarboxamido)-N-(methyl-d3)nicotinamide] gave an IC50 (TYK2-JH2 domain) of 0.738 nM, a JAK1/TYK2 selectivity (TYK2-JH2 domain) of 39.25 and an IC50 (JAK1-JH2 domain) of 29 nM. For the same compound, the GI50 [1] was 342 nM.
For [2H]C([2H])([2H])NC(=O)c1cnc(NC(=O)C2CC2)cc1Nc1cn(CC)c2ncn([C@H](C)C(F)(F)F)c(=O)c12 (single isomer, unassigned) [Example 254A, (R*)-6-(cyclopropanecarboxamido)-4-((7-ethyl-4-oxo-3-(1,1,1-trifluoropropan-2-yl)-4,7-dihydro-3H-pyrrolo[2,3-d]pyrimidin-5-yl)amino)-N-(methyl-d3)nicotinamide], the IC50 (TYK2-JH2 domain) was 0.868 nM, the JAK1/TYK2 selectivity (TYK2-JH2 domain) was 50.81 and the IC50 (JAK1-JH2 domain) was 44.1 nM. It also gave a microsomal CLint at 1 μM [2, 3] of 4.66 µL/min/mg, a half-life at 1 μM [2, 4] of 4.95 h and a microsomal CLint at 1 μM [2, 5] of 23 µL/min/mg. The half-life at 1 μM [2, 6] was 1 h, the microsomal CLint at 1 μM [2, 7] was 39.4 µL/min/mg and the half-life at 1 μM [2, 8] was 0.586 h.
With [2H]C([2H])([2H])NC(=O)c1cnc(NC(=O)C2CC2)cc1Nc1cn(CC)c2ncn([C@@H](C)C(F)(F)F)c(=O)c12 (single isomer, unassigned) [Example 254B, (S*)-6-(cyclopropanecarboxamido)-4-((7-ethyl-4-oxo-3-(1,1,1-trifluoropropan-2-yl)-4,7-dihydro-3H-pyrrolo[2,3-d]pyrimidin-5-yl)amino)-N-(methyl-d3)nicotinamide] the IC50 (TYK2-JH2 domain) was 11.6 nM, the JAK1/TYK2 selectivity (TYK2-JH2 domain) was 21.60 and the IC50 (JAK1-JH2 domain) was 252 nM.
With [2H]C([2H])([2H])NC(=O)c1nnc2cc1Nc1cc(cc(-c3ncn(C)n3)c1OC)COCc1cccc(n1)N2 [Example 68, 10-Methoxy-N-(methyl-d3)-11-(1-methyl-1H-1,2,4-triazol-3-yl)-15-oxa-2,4,5,8,21-pentaazatetracyclo[15.3.1.1^{3,7}.1^{9,13}]tricosa-1(21),3,5,7(23),9(22),10,12,17,19-nonaene-6-carboxamide] the IC50 (TYK2-JH2 domain) was 0.4 nM, the GI50 [1] was 42.1 nM and the microsomal CLint at 1 μM [2, 3] was 11.4 µL/min/mg. For the same compound, the half-life at 1 μM [2, 4] was 2.02 h, the microsomal CLint at 1 μM [2, 5] was 6.45 µL/min/mg and the half-life at 1 μM [2, 6] was 3.58 h. For the same compound, the microsomal CLint at 1 μM [2, 7] was 47.1 µL/min/mg and the half-life at 1 μM [2, 8] was 0.49 h.
Work on [2H]C([2H])([2H])NC(=O)c1cnc(NC(=O)C2CC2)cc1Nc1cn(C)c2ccn(CC)c(=O)c12 [Example 100, 6-(Cyclopropanecarbonylamino)-4-[(5-ethyl-1-methyl-4-oxo-pyrrolo[3,2-c]pyridin-3-yl)amino]-N-(methyl-d3)pyridine-3-carboxamide] yielded an IC50 (TYK2-JH2 domain) of 0.887 nM, a GI50 [1] of 374 nM and a microsomal CLint at 1 μM [2, 3] of less than 18.6 µL/min/mg. The half-life at 1 μM [2, 4] was greater than 3.1 h, the microsomal CLint at 1 μM [2, 5] was 28.6 µL/min/mg and the half-life at 1 μM [2, 6] was 1.53 h. For the same compound, the microsomal CLint at 1 μM [2, 7] was 49.5 µL/min/mg and the half-life at 1 μM [2, 8] was 0.794 h.
With [2H]C([2H])([2H])NC(=O)c1cnc(NC(=O)C2CC2)cc1Nc1cn(C)c2ccn(CC(F)(F)F)c(=O)c12 [Example 110, 6-(Cyclopropanecarboxamido)-N-(methyl-d3)-4-((1-methyl-4-oxo-5-(2,2,2-trifluoroethyl)-4,5-dihydro-1H-pyrrolo[3,2-c]pyridin-3-yl)amino)nicotinamide] the IC50 (TYK2-JH2 domain) was 0.92 nM, the GI50 [1] was 102 nM and the microsomal CLint at 1 μM [2, 3] was 15.9 µL/min/mg. It also gave a half-life at 1 μM [2, 4] of 1.45 h, a microsomal CLint at 1 μM [2, 5] of 48.8 µL/min/mg and a half-life at 1 μM [2, 6] of 0.473 h. For the same compound, the microsomal CLint at 1 μM [2, 7] was 73 µL/min/mg and the half-life at 1 μM [2, 8] was 0.316 h.
With [2H]C([2H])([2H])NC(=O)c1cnc(Nc2ccn(C)n2)cc1Nc1ccc2cnn(C([2H])([2H])[2H])c2c1OC [Example 154, 4-((7-Methoxy-1-(methyl-d3)-1H-indazol-6-yl)amino)-N-(methyl-d3)-6-((1-methyl-1H-pyrazol-3-yl)amino)nicotinamide] the IC50 (TYK2-JH2 domain) was 1.19 nM, the GI50 [1] was 145 nM and the microsomal CLint at 1 μM [2, 3] was 16.8 µL/min/mg. For the same compound, the half-life at 1 μM [2, 4] was 1.38 h, the microsomal CLint at 1 μM [2, 5] was 31.6 µL/min/mg and the half-life at 1 μM [2, 6] was 0.732 h. The microsomal CLint at 1 μM [2, 7] was 38.9 µL/min/mg and the half-life at 1 μM [2, 8] was 0.595 h.
Work on [2H]C([2H])([2H])NC(=O)c1cnc(NC(=O)C2CC2)cc1Nc1cn(C)c2ccn(C(C)C(F)(F)F)c(=O)c12 (stereo not shown) [Example 190, 6-(Cyclopropanecarboxamido)-N-(methyl-d3)-4-((1-methyl-4-oxo-5-(1,1,1-trifluoropropan-2-yl)-4,5-dihydro-1H-pyrrolo[3,2-c]pyridin-3-yl)amino)nicotinamide] yielded an IC50 (TYK2-JH2 domain) of 4.03 nM, a GI50 [1] of 78.3 nM and a microsomal CLint at 1 μM [2, 3] of 14.7 µL/min/mg. The half-life at 1 μM [2, 4] was 1.57 h, the microsomal CLint at 1 μM [2, 5] was 69.3 µL/min/mg and the half-life at 1 μM [2, 6] was 0.333 h. It also gave a microsomal CLint at 1 μM [2, 7] of 46.4 µL/min/mg and a half-life at 1 μM [2, 8] of 0.498 h.
For [2H]C([2H])([2H])NC(=O)c1cnc(NC(=O)C2CC2)cc1Nc1cn(CCOC)c2ccn(CC)c(=O)c12 [Example 193, 6-(Cyclopropanecarboxamido)-4-((5-ethyl-1-(2-methoxyethyl)-4-oxo-4,5-dihydro-1H-pyrrolo[3,2-c]pyridin-3-yl)amino)-N-(methyl-d3)nicotinamide], the IC50 (TYK2-JH2 domain) was 1.41 nM, the GI50 [1] was 368 nM and the microsomal CLint at 1 μM [2, 3] was 11.2 µL/min/mg. The half-life at 1 μM [2, 4] was 2.06 h, the microsomal CLint at 1 μM [2, 5] was 10.8 µL/min/mg and the half-life at 1 μM [2, 6] was 2.14 h. The microsomal CLint at 1 μM [2, 7] was 53.8 µL/min/mg and the half-life at 1 μM [2, 8] was 0.43 h.
[2H]C([2H])([2H])NC(=O)c1cnc(NC(=O)C2CC2)cc1Nc1ncn2ncc(Cl)c2c1OC [Example 281, 4-((3-Chloro-4-methoxypyrazolo[1,5-c]pyrimidin-5-yl)amino)-6-(cyclopropanecarboxamido)-N-(methyl-d3)nicotinamide] gave an IC50 (TYK2-JH2 domain) of 0.25 nM and a GI50 [1] of 48.2 nM.
[2H]C([2H])([2H])NC(=O)c1cnc(NC(=O)C2CC2)cc1Nc1ncn2ncc(C#N)c2c1OC [Example 282, 4-((3-Cyano-4-methoxypyrazolo[1,5-c]pyrimidin-5-yl)amino)-6-(cyclopropanecarboxamido)-N-(methyl-d3)nicotinamide] gave an IC50 (TYK2-JH2 domain) of 0.27 nM and a GI50 [1] of 75.2 nM.
